Experimental data: patent publication US20170183318A1, “AMIDE COMPOUNDS, METHODS FOR PREPARATION, AND USE THEREOF AS AGENTS FOR THE TREATMENT AND PREVENTION OF DISEASES CAUSED BY RNA- AND/OR DNA-CONTAINING VIRUSES, AND CONCOMITANT DISEASES” (OBSCHESTVO S OGRANICHENNOI OTVETSTVENNOSTIYU …, priority 2014, published 2017)

Test system: not listed separately
Assay: Rat model of nasopharyngitis induced by formalin (nasal mucosa changes, cell elements in nasal lavage)
Format: in vivo
Conditions: Wistar rats, 18 mg/kg for 3 days, number of animals out of n = 10, control 0 of 20
Experimental: Nasopharyngitis was induced by intranasal administration of formalin to each nasal passage of rats.
The administration of formalin to the nasal passages of rats leads to the dissemination of inflammation to adjacent tissues, resulting in a clinical pattern similar to the symptoms of nasopharyngitis in a human.
After an acclimatization period, the following groups were formed: • intact animals administered intragastrically a physiological solution in an amount of 0.2 ml, without induction of nasopharyngitis; • a control group consisted of animals administered intragastrically a physiological solution in an amount of 0.2 ml for 3 days after induction of nasopharyngitis; and • animals administered the studied compounds at a dose of 18 mg/kg for 3 days after induction of nasopharyngitis.
Clinical observation of each animal was performed every day at least twice daily.
The caused pathology was characterized by hyperplasia, increased number of caliciform cells, pronounced infiltration of mononuclear cells and leucocytes, and mucus hyperproduction by submucosal glands.
After euthanasia, the inflammation pattern in the nasal passages and throat was studied in each group of animals. The nasal passages were washed with 5 mL of physiological solution and the score of cell elements were counted in 1 μL.

Row | SMILES | Mucous membrane of nasal passages: Without changes (number of animals)
1 | O=C(O)CCCC(=O)NCCC1CCCN1 (stereo not shown) [Compound 2] | 3
2 | O=C(O)CCCC(=O)NCCC1CCCCN1 (stereo not shown) [Compound 6] | 4
3 | O=C(O)CCCC(=O)NCCCc1cccs1 [Compound 34] | 3
4 | CC(Cc1cnc[nH]1)NC(=O)CCCC(=O)O (stereo not shown) [Compound 115] | 3
5 | O=C(O)CCCC(=O)NCCCc1c[nH]cn1 [Compound 118] | 5
6 | CC(C)N(CCc1cnc[nH]1)C(=O)CCCC(=O)O [Compound 141] | 4
7 | Cc1csc(CCNC(=O)CCCC(=O)O)n1 [Compound 197] | 6
8 | O=C(O)CCCC(=O)NC(Cc1c[nH]cn1)C(=O)O (stereo not shown) [Compound 251] | 4
9 | O=C(O)CCCC(=O)NCCc1nc2ccccc2s1 [Compound 275] | 3

Same assay, conditions: Wistar rats, 18 mg/kg for 3 days, number of animals out of n = 10, control 20 of 20

Row | SMILES | Mucous membrane of nasal passages: Discharge mucus from the nasal passages (number of animals)
10 | O=C(O)CCCC(=O)NCCC1CCCN1 (stereo not shown) [Compound 2] | 7
11 | O=C(O)CCCC(=O)NCCC1CCCCN1 (stereo not shown) [Compound 6] | 6
12 | O=C(O)CCCC(=O)NCCCc1cccs1 [Compound 34] | 7
13 | CC(Cc1cnc[nH]1)NC(=O)CCCC(=O)O (stereo not shown) [Compound 115] | 7
14 | O=C(O)CCCC(=O)NCCCc1c[nH]cn1 [Compound 118] | 5
15 | CC(C)N(CCc1cnc[nH]1)C(=O)CCCC(=O)O [Compound 141] | 6
16 | Cc1csc(CCNC(=O)CCCC(=O)O)n1 [Compound 197] | 4
17 | O=C(O)CCCC(=O)NC(Cc1c[nH]cn1)C(=O)O (stereo not shown) [Compound 251] | 6
18 | O=C(O)CCCC(=O)NCCc1nc2ccccc2s1 [Compound 275] | 7

Test system: Sendai strain of parainfluenza virus
Assay: Antiviral activity against parainfluenza virus in mice (mortality)
Format: in vivo, white outbred mice
Conditions: Mus musculus, po, 336 h, 10LD50 intranasally, 30 mg/kg orally once daily 24-120 h after infection, 14 days observation, 20 mice per group, virus control 75.0
Experimental: In the study the Sendai strain of parainfluenza virus was used. White outbred mice weighing 10-12 g were infected intranasally with the Sendai strain of parainfluenza virus adapted to mouse lungs under brief ether anesthesia in a volume of 0.05 ml/mouse. The infectious dose of the virus that caused 70-80% mortality in mice was 10LD50. Each group used in the experiment comprised 20 animals. Intact animals served as control and were hold in a separate room under the same conditions as the experimental animals. The antiviral activity of the compounds of general formula I was studied by oral administration of the compounds to infected mice once daily at a dose of 30 mg/kg/mouse 24, 48, 72, 96, and 120 hours after infection of the animals with the virus. The mice of the control group were administered placebo (0.2 mL of physiological solution) under the same conditions. The animals were monitored for 14 days after infection by registration the mouse death in the groups.
Each animal was subjected to once-daily observation. The observation included the assessment of general behavior and body condition of animals. In days of administration of preparations, the observation was conducted before administration of a preparation in a certain time and about two hours after administration. The animals were handled according to the International Standards.
The activity of the compounds was evaluated by comparing mortality rates in the groups of animals administered a preparation and placebo.

Row | SMILES | mortality at 30 mg/kg [%]
19 | O=C(O)CCCC(=O)NCCC1CCCN1 (stereo not shown) [Compound 2] | 35
20 | O=C(O)CCCC(=O)NCCC1CCCCN1 (stereo not shown) [Compound 6] | 25
21 | O=C(O)CCCC(=O)NCCCc1cccs1 [Compound 34] | 15
22 | CC(Cc1cnc[nH]1)NC(=O)CCCC(=O)O (stereo not shown) [Compound 115] | 30
23 | O=C(O)CCCC(=O)NCCCc1c[nH]cn1 [Compound 118] | 30
24 | CC(C)N(CCc1cnc[nH]1)C(=O)CCCC(=O)O [Compound 141] | 40
25 | Cc1csc(CCNC(=O)CCCC(=O)O)n1 [Compound 197] | 25
26 | O=C(O)CCCC(=O)NC(Cc1c[nH]cn1)C(=O)O (stereo not shown) [Compound 251] | 35
27 | O=C(O)CCCC(=O)NCCc1nc2ccccc2s1 [Compound 275] | 40

Test system: Coxsackie A2 virus (strain HCXV A2)
Assay: Antiviral activity against Coxsackie virus in vivo (mortality and life expectancy of infected mice)
Conditions: Mus musculus, po, 168 h, read-out: Protective index (%)
Procedure, shortened: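 White mice (6–7 g), 14–15 per group, infected i.m. with 10LD50 of HCXV A2; compounds 30 mg/kg orally once daily for 7 days from 24 h post-infection, saline placebo. Mortality and weight recorded daily over 15 days versus untreated infected group.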

Row | SMILES | inhibition in vivo at 30 mg/kg [%]
28 | Cc1csc(CCNC(=O)CCCC(=O)O)n1 [Compound 197] | 33.3
29 | O=C(O)CCCC(=O)NC(Cc1c[nH]cn1)C(=O)O (stereo not shown) [Compound 251] | 33.3

Same assay, conditions: Mus musculus, po, 168 h; 30 mg/kg orally once daily for 7 days; vs virus control; read-out: Protective index (%)

Row | SMILES | inhibition in vivo at 30 mg/kg [%]
30 | O=C(O)CCCC(=O)NCCC1CCCN1 (stereo not shown) [Compound 2] | 55.6
31 | O=C(O)CCCC(=O)NCCCc1cccs1 [Compound 34] | 22.2
32 | O=C(O)CCCC(=O)NCCc1nc2ccccc2s1 [Compound 275] | 40

Same assay, conditions: Mus musculus, po, 360 h, read-out: Total mortality, %

Row | SMILES | mortality at 30 mg/kg [%]
33 | O=C(O)CCCC(=O)NCCC1CCCN1 (stereo not shown) [Compound 2] | 28.6
34 | O=C(O)CCCC(=O)NCCCc1cccs1 [Compound 34] | 50
35 | Cc1csc(CCNC(=O)CCCC(=O)O)n1 [Compound 197] | 42.9
36 | O=C(O)CCCC(=O)NC(Cc1c[nH]cn1)C(=O)O (stereo not shown) [Compound 251] | 42.9
37 | O=C(O)CCCC(=O)NCCc1nc2ccccc2s1 [Compound 275] | 42.9

Same assay, conditions: difference vs virus control; 30 mg/kg orally once daily for 7 days

Row | SMILES | Average life expectancy (days), Compared with control
38 | O=C(O)CCCC(=O)NCCC1CCCN1 (stereo not shown) [Compound 2] | +20.1 days
39 | O=C(O)CCCC(=O)NCCCc1cccs1 [Compound 34] | +8.3 days
40 | Cc1csc(CCNC(=O)CCCC(=O)O)n1 [Compound 197] | +11.2 days
41 | O=C(O)CCCC(=O)NC(Cc1c[nH]cn1)C(=O)O (stereo not shown) [Compound 251] | +10.0 days
42 | O=C(O)CCCC(=O)NCCc1nc2ccccc2s1 [Compound 275] | +9.5 days

Same assay, conditions: mice infected with 10LD50 HCXV A2; 30 mg/kg orally once daily for 7 days

Row | SMILES | Average life expectancy (days), Relative [days]
43 | O=C(O)CCCC(=O)NCCC1CCCN1 (stereo not shown) [Compound 2] | 32.3
44 | O=C(O)CCCC(=O)NCCCc1cccs1 [Compound 34] | 20.5
45 | Cc1csc(CCNC(=O)CCCC(=O)O)n1 [Compound 197] | 22.2
46 | O=C(O)CCCC(=O)NC(Cc1c[nH]cn1)C(=O)O (stereo not shown) [Compound 251] | 22.2
47 | O=C(O)CCCC(=O)NCCc1nc2ccccc2s1 [Compound 275] | 22.4

Test system: human virus hRSV
Assay: Antiviral activity against mouse-adapted RS virus (body weight; viral titer in lungs titrated in Hep-2 cells)
Format: in vivo, mice
Conditions: day 5; compounds 30 mg/kg, Ribavirin 40 mg/kg, orally once daily for 5 days; n = 6
Experimental: Antiviral effectiveness of the chemical compounds against RSV in an experimental murine model in vivo was determined for human virus hRSV that was previously adapted to the growth in mouse lungs. The animals were infected with the virus at a dose of 0.5 log TCID50 intranasally under brief ether anesthesia in a volume of 0.05 ml/mouse. The studied compounds were administered orally once daily for 5 days according to the treatment regimen at a dose of 30 mg/kg. The first administration was made 24 hours after infection. Normal saline solution was administered to mice as placebo. Intact animals served as a negative control and were hold in a separate room under the same conditions as the experimental animals. Each experimental group comprised 12 animals.
The antiviral activity of the studied compounds was determined by the efficiency in the prevention of weight loss and by suppression of the reproduction of hRSV in the mouse lungs by measuring a viral titer in the experimental groups relative to the control on days 5 and 7 after infection.
In addition, the therapeutic action of the compounds of general formula I was determined by their ability to suppress the reproduction of hRSV in the mouse lungs on days 5 and 7 after infection. The viral titer was determined by the titration of a 10% lung suspension in Hep-2 cell culture. The result was registered 2 days after the incubation at 37° C. by TCID.

Row | SMILES | Body weight of the mice on day 5 after infection with hRSV (M ± SD)
48 | O=C(O)CCCC(=O)NCCC1CCCCN1 (stereo not shown) [Compound 6] | 16.47 ± 0.26

Same assay, conditions: day 7; compounds 30 mg/kg, Ribavirin 40 mg/kg, orally once daily for 5 days; n = 6

Row | SMILES | Body weight of the mice on day 7 after infection with hRSV (M ± SD)
49 | O=C(O)CCCC(=O)NCCC1CCCCN1 (stereo not shown) [Compound 6] | 17.02 ± 0.29
